Experimental findings from patent publication US9980943B2, “Methods of treating muscular dystrophy” (BOARD OF REGENTS OF THE NEVADA SYSTEM OF HIGHER EDUCATION, …, priority 2013, dated 2018) are described below.

Holding throughout (assay type): cell-based, mouse
Experiment [1] has as its system α7 integrin (LacZ reporter in α7βgal+/− myoblasts). As to the kind of experiment: Myoblast α7+/LacZ integrin FDG assay (Burkin assay in myoblasts, 96-well). Particulars: α7+/LacZ myoblasts, 96-well.
Experiment [2] concerns α7 integrin (LacZ reporter in α7+/LacZ myotubes). Description: Myotube α7 integrin FDG assay (Burkin assay in myotubes, 96-well). The settings on record: myotubes.
The test system of experiment [3] is β-galactosidase in CMV-LacZ C2C12 myotubes. Description: CMV-LacZ secondary screen in C2C12 myotubes (β-Gal stabilizing assay). The settings on record: C2C12 CMV-LacZ myotubes, fold relative to DMSO. The text has this:
In order to determine compounds that acted to stabilize β-gal in myogenic cells, a CMV-LacZ C2C12 cell line was used in a secondary screen. The EGFP gene from the pEGFP (Clontech) vector was replaced by LACZ PCR product with digests of the vector/PCR product performed using EcoRI (NEB) and NotI (NEB) and ligated using T4 DNA Ligase (NEB) following standard procedures to produce the CMV-LACZ vector. The LACZ gene was generated by PCR from the pBK-RSV (Stratagene) vector using primers LACZ EcoRI F- and LACZ NotI R-. The CMV-LACZ vector was then digested with AfIII (NEB) to linearize the construct, which was then transfected in C2C12 myoblasts using Lipofectamine 2000 (Invitrogen) following the manufacturer's instructions. […] Clonal lines were selected and screened for βgal levels using the myoblast FDG assay.
The assays were used the original 96-well format and new dose-response curves for myoblasts (N=3-6 replicates for each data point), myotubes (N=3-6 replicates for data point), and CMV-LacZ secondary assay (N=2 replicates for each data point) using concentrations of 0.5 μM, 1 μM, 5 μM, 10 μM, 20 μM, and 40 μM (Tables 9-16).

`O=Cc1ccc(C(=O)OCC(=O)N2CCCC2)cc1` [MLS001172577-01]: the “Burkin Assay in Myoblasts, value relative to DMSO” value in experiment [1] (0.5 uM) turned out to be 0.996; in experiment [1] (1 uM) it was 0.9654; in experiment [1] (5 uM), 1.142; in experiment [1] (10 uM) it was 1.0758; in experiment [1] (20 uM), 1.0212; in experiment [1] (40 uM) it was 0.9431. In addition, the “Burkin Assay in Myotubes (signal relative to DMSO)” value stood at 1.122 in experiment [2] (0.5 uM); 1.0349 in experiment [2] (1 uM); 1.131 in experiment [2] (5 uM); 1.101 in experiment [2] (10 uM); 1.14 in experiment [2] (20 uM); 0.7324 in experiment [2] (40 uM). Further, the “CMV-LACZ in Myotubes, signal relative to DMSO” value in experiment [3] (5 uM) is recorded as 0.8944; in experiment [3] (10 uM) it was 0.862; in experiment [3] (20 uM) it was 1.029; in experiment [3] (40 uM) it was 0.9627.
Consider `COc1ccc(CCNC(=O)c2cc(-c3cc(C)ccc3O)n[nH]2)cc1OC` [MLS000552080-01], for which the “Burkin Assay in Myoblasts, signal relative to DMSO” value in experiment [1] (0.5 uM) was 0.9689; in experiment [1] (1 uM), 0.9784; in experiment [1] (5 uM) it was 1.056; in experiment [1] (10 uM), 1.089; in experiment [1] (20 uM), 0.9333; in experiment [1] (40 uM), 0.8855. Besides, the “Burkin Assay in Myotubes, α7 integrin LacZ reporter signal relative to DMSO” value in experiment [2] (0.5 uM) was 0.9672; in experiment [2] (1 uM), 1.15; in experiment [2] (5 uM) it was 1.214; in experiment [2] (10 uM) it was 1.24; in experiment [2] (20 uM) it was 1.0378; in experiment [2] (40 uM) it was 0.9286. The “CMV-LACZ in Myotubes, signal relative to DMSO” value was determined as 1.197 in experiment [3] (5 uM), 1.0688 in experiment [3] (10 uM), 0.9522 in experiment [3] (20 uM) and 0.8044 in experiment [3] (40 uM).
Take `O=C(COC(=O)Cn1cnc2ccccc21)Nc1cccc([N+](=O)[O-])c1` [MLS001005283-01]: the “Burkin Assay in Myoblasts, signal relative to DMSO” value in experiment [1] (0.5 uM) is reported as 0.8702; in experiment [1] (1 uM), 0.8582; in experiment [1] (5 uM), 0.9346; in experiment [1] (10 uM), 0.8908; in experiment [1] (20 uM), 0.8965; in experiment [1] (40 uM), 0.9301. Moreover, the “Burkin Assay in Myotubes, α7 integrin LacZ reporter signal relative to DMSO” value is recorded as 0.9811 in experiment [2] (0.5 uM); 0.9951 in experiment [2] (1 uM); 0.8583 in experiment [2] (5 uM); 0.9141 in experiment [2] (10 uM); 0.9432 in experiment [2] (20 uM); 0.7596 in experiment [2] (40 uM). Further, the “CMV-LACZ in Myotubes, signal relative to DMSO” value in experiment [3] (5 uM) is listed as 0.9005; in experiment [3] (10 uM), 0.9051; in experiment [3] (20 uM) it was 1.032; in experiment [3] (40 uM) it was 1.1425.
`Cc1ccc(N(CCC(=O)O)S(=O)(=O)c2cccc(C(F)(F)F)c2)cc1` [MLS000775793-01]: the “Burkin Assay in Myoblasts, value relative to DMSO” value turned out to be 1.103 in experiment [1] (0.5 uM); 1.076 in experiment [1] (1 uM); 1.109 in experiment [1] (5 uM); 1.076 in experiment [1] (10 uM); 0.9292 in experiment [1] (20 uM); 0.9895 in experiment [1] (40 uM). Moreover, the “Burkin Assay in Myotubes (signal relative to DMSO)” value turned out to be 0.9391 in experiment [2] (0.5 uM); 0.8833 in experiment [2] (1 uM); 0.8722 in experiment [2] (5 uM); 0.6224 in experiment [2] (10 uM); 0.9965 in experiment [2] (20 uM); 0.9508 in experiment [2] (40 uM). The “CMV-LACZ in Myotubes, signal relative to DMSO” value in experiment [3] (5 uM) was determined as 0.855; in experiment [3] (10 uM), 1.012; in experiment [3] (20 uM), 0.9323; in experiment [3] (40 uM), 1.021.
Turning to `Cc1ccccc1C(=O)Nc1scc(-c2ccc(Br)cc2)c1C(=O)O` [MLS001179267-01], the “Burkin Assay in Myoblasts, value relative to DMSO” value in experiment [1] (0.5 uM) worked out at 0.983; in experiment [1] (1 uM), 1.031; in experiment [1] (5 uM), 0.9797; in experiment [1] (10 uM) it was 0.9902; in experiment [1] (20 uM), 0.9305; in experiment [1] (40 uM) it was 0.95. Also, the “Burkin Assay in Myotubes (signal relative to DMSO)” value in experiment [2] (0.5 uM) was 0.947; in experiment [2] (1 uM), 0.8787; in experiment [2] (5 uM), 0.8908; in experiment [2] (10 uM), 0.559; in experiment [2] (20 uM), 0.8589; in experiment [2] (40 uM), 0.5111. The “CMV-LACZ in Myotubes, signal relative to DMSO” value in experiment [3] (5 uM) was 0.9091; in experiment [3] (10 uM) it was 0.8244; in experiment [3] (20 uM), 0.6141; in experiment [3] (40 uM) it was 0.5554.
For `O=Cc1cn(Cc2ccc(F)cc2Cl)c2ccccc12` [MLS000676974-01], the “Burkin Assay in Myoblasts, value relative to DMSO” value in experiment [1] (0.5 uM) is listed as 1.105; in experiment [1] (1 uM), 1.137; in experiment [1] (5 uM), 0.99; in experiment [1] (10 uM), 1.099; in experiment [1] (20 uM), 0.6673; in experiment [1] (40 uM), 0.5184. The “Burkin Assay in Myotubes (signal relative to DMSO)” value in experiment [2] (0.5 uM) is recorded as 0.9171; in experiment [2] (1 uM), 0.9021; in experiment [2] (5 uM), 0.7009; in experiment [2] (10 uM), 0.5994; in experiment [2] (20 uM) it was 0.9758; in experiment [2] (40 uM) it was 0.5447. The “CMV-LACZ in Myotubes, signal relative to DMSO” value in experiment [3] (5 uM) was 1.077; in experiment [3] (10 uM), 0.4574; in experiment [3] (20 uM) it was 1.083; in experiment [3] (40 uM), 0.46.
`N#Cc1ccccc1S(=O)(=O)N1CCN(C(=O)C2CCCCC2)CC1` [MLS002251986-01]: the “Burkin Assay in Myoblasts, signal relative to DMSO” value in experiment [1] (0.5 uM) is recorded as 1.046; in experiment [1] (1 uM), 0.9231; in experiment [1] (5 uM) it was 0.9512; in experiment [1] (10 uM), 0.8667; in experiment [1] (20 uM), 0.9793; in experiment [1] (40 uM), 0.9184. Besides, the “Burkin Assay in Myotubes, α7 integrin LacZ reporter signal relative to DMSO” value in experiment [2] (0.5 uM) came to 1.121; in experiment [2] (1 uM), 0.9515; in experiment [2] (5 uM), 1.073; in experiment [2] (10 uM), 1.088; in experiment [2] (20 uM) it was 0.9882; in experiment [2] (40 uM) it was 0.9112. Further, the “CMV-LACZ in Myotubes, signal relative to DMSO” value in experiment [3] (5 uM) was determined as 0.9831; in experiment [3] (10 uM), 0.9609; in experiment [3] (20 uM) it was 0.8238; in experiment [3] (40 uM) it was 0.9776.
